Results published in ChEMBL document CHEMBL5532657, “Serendipitous discovery of Class I HDAC inhibitors from rational design of molecular glue degraders targeting HDAC” (Eur J Med Chem, 2024).
Activity calls are given as the source filed them. No cut-off for these calls is given here.

Experiments:
[1] = test system: RS4-11; assay: Antiproliferative activity against human RS4-11 cells assessed as cell growth inhibition incubated for 48 hrs by CCK-8 assay; assay type: functional, cell-based; details: RS4-11, 48 h
[2] = molecular target: DNA-binding protein Ikaros (Homo sapiens) (UniProt Q13422); assay: Induction of IKZF1 degradation in human RS4-11 cells at 1 to 10 uM by Western blotting analysis; assay type: cell-based; details: dose 1-10 µM
Chain of DNA-binding protein Ikaros (Homo sapiens) (Q13422 whole entry): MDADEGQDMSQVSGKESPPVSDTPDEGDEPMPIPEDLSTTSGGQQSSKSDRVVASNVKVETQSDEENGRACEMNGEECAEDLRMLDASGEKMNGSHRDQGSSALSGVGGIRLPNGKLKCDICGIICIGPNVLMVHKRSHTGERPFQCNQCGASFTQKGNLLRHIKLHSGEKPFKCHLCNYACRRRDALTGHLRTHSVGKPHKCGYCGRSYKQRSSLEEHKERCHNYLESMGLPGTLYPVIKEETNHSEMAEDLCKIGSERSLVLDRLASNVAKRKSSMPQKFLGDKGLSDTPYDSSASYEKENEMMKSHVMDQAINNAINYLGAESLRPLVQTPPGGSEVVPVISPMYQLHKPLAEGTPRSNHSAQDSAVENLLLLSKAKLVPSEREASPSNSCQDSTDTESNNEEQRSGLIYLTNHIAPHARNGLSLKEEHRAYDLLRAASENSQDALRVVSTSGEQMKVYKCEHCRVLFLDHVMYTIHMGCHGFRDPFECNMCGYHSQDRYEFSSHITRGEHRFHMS

| Compound | IC50 [1] | Activity [2] |
| --- | --- | --- |
| Nc1ccccc1NC(=O)c1ccc(CNc2cccc3c2C(=O)N(C2CCC(=O)NC2=O)C3=O)cc1 (centres undefined) | 1570 nM | Active |
| Nc1cc(F)ccc1NC(=O)c1ccc(CNc2cccc3c2C(=O)N(C2CCC(=O)NC2=O)C3=O)cc1 (centres undefined) | 2110 nM | Active |
